{GalNAc3} = trishexylamino-C6 triantennary GalNAc conjugate; e = 2'-O-(2-methoxyethyl) (MOE); d = 2'-deoxy (DNA)
How the values were obtained:
BSEP = system: T1, BSEP; assay: BSEP substrate study in Sf9 membrane vesicles; format: in vitro ADME; conditions: 10 μM ASO, ATP vs AMP
T1 construct: purchased Life Technologies; host or cells: Sf9 cells (membrane vesicles)
Procedure: The test system included a 96-well flat bottom plate containing a suspension of vesicles and a 96-well glass fiber filtration plate. Transport experiments were initiated with the addition of Mg-ATP (for ATP-dependent BSEP uptake) or AMP (non-ATP-dependent uptake) to appropriate wells. Preparation of the flat-bottom plates included incubation with blocking buffer for 60 min at 37°C with orbital shaking at 120 rpm. After 60 min, the blocking buffer was completely removed and assay uptake buffer solutions were added. For BSEP inhibition studies, solutions contained 1 μM [^3H]-taurocholic acid as a substrate and either assay vehicle, test article (at 100 μM), or reference inhibitor (300 μM rifampicin). For BSEP substrate studies, solutions contained either 1 μM [^3H]-taurocholic acid or 10 μM test article. Vesicles were added to assay plates and incubated at 37°C with orbital shaking at 120 rpm for 15 min. To initiate the assay, either Mg-ATP or AMP was added to test wells at a final concentration of 5 mM. Plates were incubated at 37°C with orbital shaking at 120 rpm for 15 min. A glass fiber filtration plate was incubated with blocking buffer for 2 min. Vacuum was then applied to remove the blocking buffer, and ice-cold wash buffer was added to the filtration plate. Vesicular transport was quenched by adding ice-cold wash buffer. Assay samples were then mixed as diluted in wash buffer and 175 μL was transferred into the 96-well glass fiber filtration plate to separate vesicles. […] These samples were counted using a 1450 Microbeta (Perkin-Elmer). […] The test article was quantitated by LC-MS. […]
Signal to noise for the BSEP probe substrate was calculated by dividing the uptake of the probe substrate in BSEP-expressing vesicles in the presence of ATP by the uptake of the BSEP substrate in the vesicles in the presence of AMP. Percent inhibition in the presence of the test article or the reference inhibitors was calculated as: %inhibition=100−(100×(ATP−dependent,transportor−mediatedaccumulation)withinhibitor/(ATP−dependent,transportor−mediatedaccumulation)withoutinhibitor).

human hepatocytes = assay: Hepatocyte uptake (cell pellet and supernatant concentrations by LC-UV/MS); format: in vitro ADME; conditions: for Cellular concentration in hepatocytes: test concentration of 1.00 μM
Procedure: A time-course experiment was conducted in triplicate for each concentration of test compound for 0, 30, 60, and 120 min incubations at 37°C with 5% CO2. At the end of each respective time point, the cell suspensions were centrifuged for 8 min at a speed of 50 × g, and the supernatant from each sample was collected. The cell pellets were washed by resuspension in Williams’ Medium E, followed by centrifugation at 50 × g for 8 min. The supernatant from the wash step was discarded and the remaining cell pellets were kept for analysis. Cell pellets and respective supernatants were measured for the presence of ASO by LC-MS.
Samples were analyzed using a tandem LC-UV/MS method. A total of 72 samples per ASO, corresponding to human hepatocyte cells and supernatant fractions, was assayed. Samples, curves, and controls (QCs) were aliquoted into 96-well plates and internal standard was added. Aliquots in 96-well plates were extracted via a liquid-liquid extraction using ammonium hydroxide and phenol:chloroform:isoamyl alcohol (25:24:1). The aqueous layer was then further processed via solid phase extraction (Phenomenex, Strata X SPE), and then dried down under nitrogen and reconstituted in 140 μL of water containing 100 μM EDTA. Samples were then injected onto an Agilent 6130 LC-MS system for analysis. Two curves were created for quantitation, one utilizing UV absorbance at 260 nm and an additional curve using single ion monitoring data from the mass spectrometer. The calibration range using the MS detector was 0.0640–641 μM with liver homogenate, as used to quantitate the concentration in hepatocyte pellet samples. A minimum signal-to-noise ratio of 5:1 was used to distinguish ASO peaks from background noise. […] Acceptance criteria for calibration and QC standards were set to 85%–115% of nominal values. For the MS, three QC levels were run in triplicate at 1.60 μM, 160 μM, and 481 μM and eight of the nine QCs passed. For the UV, three QC levels were run in triplicate at 160 μM, 481 μM, and 3,205 μM and all QCs passed. All samples were stored at −70°C ± 10°C upon receipt. Hepatocyte cell count conversion to μM liver weight equivalent was calculated by converting the number of hepatocytes per sample to the liver weight equivalent: [(0.1 × 10^6 cells per sample)/128 × 10^6 cells/g)] × […] = 0.78 mg, where 1 g of liver contains 128 × 10^6 cells/g. Supernatant concentrations are calculated assuming a 100% recovery and that 1 mL William E Medium is equal to 1 g. The calibration range for ASOs in transporter studies was 0.01–10 μM in 100 μL for RLT buffer and 0.005–10 μM in 100 μL for HBSS buffer.

Substance | BSEP-mediated uptake relative to corresponding controls (BSEP) [fold] | Average cellular concentration in hepatocytes (human hepatocytes; after 30-min incubation) [µM] | Average cellular concentration in hepatocytes (human hepatocytes; after 120-min incubation) [µM] | Cellular concentration in hepatocytes (human hepatocytes; after 120 min of incubation) [µM] | Cellular concentration in hepatocytes (human hepatocytes; time points 0–60 min)
ISIS 304801: 20-mer (5-10-5) 2′-MOE gapmer PS backbone antisense inhibitor of apoC-III, sequence AGCTTCTTGTCCAGCTTTAT (sugars from the 5' end e5 d10 e5, all phosphorothioate, methylation of C not given here) | < 2 | 56.3 | 140 | – | –
ISIS 681257: 20-mer 2′-MOE gapmer PS/PO mixed backbone ASO conjugated to 5′-trishexylamino GalNAc3, targets Lp(a), sequence TGCTCCGTTGGTGCTTGTTC (5' {GalNAc3}, sugars by position and backbone not given here; 2'-MOE gapmer with mixed PS/PO backbone) | < 2 | 14.0 | 50.6 | 0.626 | below the level of quantitation
ISIS 420915: 20-mer 2′-MOE gapmer PS backbone antisense inhibitor of transthyretin, sequence TCTTGGTTACATGAAATCCC (all phosphorothioate, sugars by position and methylation of C not given here; 2'-MOE gapmer) | < 2 | 52.2 | 106 | – | –

From article PMC5602538, “Assessment of the Drug Interaction Potential of Unconjugated and GalNAc3-Conjugated 2′-MOE-ASOs” (Molecular Therapy. Nucleic Acids, 2017)
